These results are taken from patent publication US7582773B2, “Substituted phenyl indoles” (Wyeth, priority 2003, dated 2009).

One data set has as its target human PAI-1 (Homo sapiens, UniProt P05121). The experiment in a line: Assay for determining the IC50 of inhibition of PAI-1 (active PAI-1 bound to tPA-coated plate). It counts as biochemical. To be noted: test compound 1-50 μM, pH 7.5. As to the method: Assay for determining the IC50 of inhibition of PAI-1. This assay is based upon the non-SDS dissociable interaction between tPA and active PAI-1. Assay plates are initially coated with human tPA (10 μg/ml). Test compounds are dissolved in DMSO at 10 mM, then diluted with physiologic buffer (pH 7.5) to a final concentration of 1-50 μM. The test compounds are incubated with human PAI-1 (50 ng/ml) for 15 minutes at room temperature. The tPA-coated plate is washed with a solution of 0.05% Tween 20 and 0.1% BSA, then the plate is blocked with a solution of 3% BSA. An aliquot of the test compound/PAI-1 solution is then added to the tPA-coated plate, incubated at room temperature for 1 hour, and washed. Active PAI-1 bound to the plate is assessed by adding an aliquot of a 1:1000 dilution of the 33B8 monoclonal antibody against human PAI-1, and incubating the plate at room temperature for 1 hour (Molecular Innovations, Royal Oak, Mich.). The plate is again washed, and a solution of goat anti-mouse IgG-alkaline phosphatase conjugate is added at a 1:50,000 dilution in goat serum. The plate is incubated 30 minutes at room temperature, washed, and a solution of alkaline phosphatase substrate is added. The plate is incubated 45 minutes at room temperature, and color development is determined at OD405 nm. The quantitation of active PAI-1 bound to tPA at varying concentrations of the test compound is used to determine the IC50. Results are analyzed using a logarithmic best-fit equation. The assay sensitivity is 5 ng/ml of human PAI-1 as determined from a standard curve ranging from 0-100 ng/ml.

Data set [1] addresses T1, recombinant human plasminogen activator inhibitor-1 (PAI-1) (Homo sapiens, UniProt P05121).
T1 construct: purchased Molecular Innovations, Royal Oak, Mich
The experiment in a line: Screening for PAI-1 inhibition (chromogenic tPA activity assay). It counts as biochemical. As to the method:
Screening for PAI-1 inhibition. Test compounds are dissolved in DMSO at a final concentration of 10 mM, then diluted 100× in physiologic buffer. The inhibitory assay is initiated by the addition of the test compound (1-100 μM final concentration, maximum DMSO concentration of 0.2%) in a pH 6.6 buffer containing 140 nM recombinant human plasminogen activator inhibitor-1 (PAI-1; Molecular Innovations, Royal Oak, Mich.). Following a 1 hour incubation at room temperature, 70 nM of recombinant human tissue plasminogen activator (tPA) is added, and the combination of the test compound, PAI-1 and tPA is incubated for an additional 30 minutes. Following the second incubation, Spectrozyme-tPA (American Diagnostica, Greenwich, Conn.), a chromogenic substrate for tPA, is added and absorbance read at 405 nm at 0 and 60 minutes. Relative PAI-1 inhibition is equal to the residual tPA activity in the presence of the test compounds and PAI-1. Control treatments include the complete inhibition of tPA by PAI-1 at the molar ratio employed (2:1), and the absence of any effect of the test compound on tPA alone.

Sequence of human PAI-1 (P05121 24-402): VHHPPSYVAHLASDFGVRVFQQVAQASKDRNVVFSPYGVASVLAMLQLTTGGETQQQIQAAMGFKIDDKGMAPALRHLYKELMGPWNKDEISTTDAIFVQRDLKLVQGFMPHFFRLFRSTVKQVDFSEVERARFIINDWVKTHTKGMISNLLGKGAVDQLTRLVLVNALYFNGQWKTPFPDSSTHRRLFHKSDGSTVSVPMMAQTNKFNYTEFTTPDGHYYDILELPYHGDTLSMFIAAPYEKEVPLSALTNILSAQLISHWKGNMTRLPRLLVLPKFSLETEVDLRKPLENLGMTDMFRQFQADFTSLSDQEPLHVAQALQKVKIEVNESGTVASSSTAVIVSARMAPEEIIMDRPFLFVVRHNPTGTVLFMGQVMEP
T1 sequence (P05121 24-402): as above

By melting point is commonly meant the temperature, or range, at which the solid turns liquid. What is called IC50 is the concentration needed to halve the response being measured. A low value points to greater potency in that assay. Take `Cc1c(Cc2ccccc2)c2cc(-c3ccc(OCc4nnn[nH]4)cc3)ccc2n1Cc1ccccc1` [1,3-Dibenzyl-2-methyl-5-[4-(1H-tetrazol-5-ylmethoxy)-phenyl]-1H-indole]: the melting point lay in the range of 190 to 192 °C. On human PAI-1, this compound yielded an IC50 of 47.7 µM.
The inhibition is the change of the read-out against control, counted positive when it falls. In the case of `c1ccc(Cc2c(-c3ccccc3)n(Cc3ccccc3)c3ccc(-c4ccc(OCc5nnn[nH]5)cc4)cc23)cc1` [1,3-Dibenzyl-2-phenyl-5-[4-(1H-tetrazol-5-ylmethoxy)-phenyl]-1H-indole], the inhibition at 25 µM in data set [1] came out at 51%.
`Cc1c(-c2ccccc2)n(C)c2cccc(-c3ccc(OCc4nnn[nH]4)cc3)c12` [1,3-Dimethyl-2-phenyl-4-[4-(1H-tetrazol-5-ylmethoxy)-phenyl]-1H-indole] had an IC50 against human PAI-1 of 32.8 µM.
Turning to `Cc1c(-c2ccccc2)n(C)c2ccc(-c3ccc(OCc4nnn[nH]4)cc3)cc12` [1,3-Dimethyl-2-phenyl-5-[4-(1H-tetrazol-5-ylmethoxy)-phenyl]-1H-indole], the IC50 on human PAI-1 turned out to be 16.5 µM.
At human PAI-1, `Cc1c(C)n(Cc2ccccc2)c2ccc(-c3ccc(OCc4nnn[nH]4)cc3)cc12` [1-Benzyl-2,3-dimethyl-5-[4-(1H-tetrazol-5-ylmethoxy)-phenyl]-1H-indole] came in with an IC50 of 28.2 µM.
For the compound `Cc1c(-c2ccccc2)n(Cc2ccccc2)c2cccc(-c3ccc(OCc4nnn[nH]4)cc3)c12` [1-Benzyl-3-methyl-2-phenyl-4-[4-(1H-tetrazol-5-ylmethoxy)-phenyl]-1H-indole], the melting point was 174 to 177 °C. In addition, the IC50 at human PAI-1 turned out to be 25.7 µM.
`Cc1c(-c2ccccc2)n(Cc2ccccc2)c2ccc(-c3ccc(OCc4nnn[nH]4)cc3)cc12` [1-Benzyl-3-methyl-2-phenyl-5-[4-(1H-tetrazol-5-ylmethoxy)-phenyl]-1H-indole]: at human PAI-1, the IC50 was determined as 10.1 µM.
Regarding `Cc1c(-c2ccccc2)n(Cc2ccccc2)c2cc(-c3ccc(OCc4nnn[nH]4)cc3)ccc12` [1-Benzyl-3-methyl-2-phenyl-6-[4-(1H-tetrazol-5-ylmethoxy)-phenyl]-1H-indole], at human PAI-1, it took 36.9 µM to reach half-maximal inhibition (IC50).
For the compound `CCCCCc1c(-c2ccccc2)n(Cc2ccccc2)c2ccc(-c3ccc(OCc4nnn[nH]4)cc3)cc12` [1-Benzyl-3-pentyl-2-phenyl-5-[4-(1H-tetrazol-5-ylmethoxy)-phenyl]-1H-indole], the melting point is 165 to 168 °C. On human PAI-1, the IC50 was found to be 16.3 µM.
On human PAI-1, `CCCCCc1c(-c2ccccc2)n(C)c2ccc(-c3ccc(OCc4nnn[nH]4)cc3)cc12` [1-Methyl-3-pentyl-2-phenyl-5-[4-(1H-tetrazol-5-ylmethoxy)-phenyl]-1H-indole] showed a half-maximal inhibitory concentration (IC50) of 36.4 µM.
On to `Cc1c(Cc2ccccc2)c2cc(-c3ccc(OCc4nnn[nH]4)cc3)ccc2n1C` [3-Benzyl-1,2-dimethyl-5-[4-(1H-tetrazol-5-ylmethoxy)-phenyl]-1H-indole], for which the IC50 against human PAI-1 came out at 43.9 µM.
On to `Cn1c(-c2ccccc2)c(Cc2ccccc2)c2cc(-c3ccc(OCc4nnn[nH]4)cc3)ccc21` [3-Benzyl-1-methyl-2-phenyl-5-[4-(1H-tetrazol-5-ylmethoxy)-phenyl]-1H-indole], for which the inhibition at 25 µM in data set [1] was 56%.
`c1ccc(Cn2c3c(c4cc(-c5ccc(OCc6nnn[nH]6)cc5)ccc42)CCCC3)cc1` [9-Benzyl-6-[4-(1H-tetrazol-5-ylmethoxy)-phenyl]-2,3,4,9-tetrahydro-1H-carbazole] yielded a concentration for half-maximal inhibition (IC50) on human PAI-1 of 27.5 µM.
For `Cn1c2c(c3cc(-c4ccc(OCc5nnn[nH]5)cc4)ccc31)CCCC2` [9-Methyl-6-[4-(1H-tetrazol-5-ylmethoxy)-phenyl]-2,3,4,9-tetrahydro-1H-carbazole], at human PAI-1, the IC50 is 6.1 µM.
`Cc1c(Cc2ccccc2)c2cc(-c3ccc(OCC(=O)O)cc3)ccc2n1Cc1ccccc1` [[4-(1,3-Dibenzyl-2-methyl-1H-indol-5-yl)-phenoxy]-acetic acid] came in with a melting point of 180 to 183 °C. Besides, half-maximal inhibition at human PAI-1 (IC50) was put at 25.3 µM.
In the case of `O=C(O)COc1ccc(-c2ccc3c(c2)c(Cc2ccccc2)c(-c2ccccc2)n3Cc2ccccc2)cc1` [[4-(1,3-Dibenzyl-2-phenyl-1H-indol-5-yl)-phenoxy]-acetic acid], the melting point lay in the range of 153 to 155 °C. At human PAI-1, 12.1 µM corresponded to half-maximal inhibition (IC50).
In the same order, the values of `Cc1c(-c2ccccc2)n(C)c2cccc(-c3ccc(OCC(=O)O)cc3)c12` [[4-(1,3-Dimethyl-2-phenyl-1H-indol-4-yl)-phenoxy]-acetic acid] are 177 to 180 °C and 33.9 µM.
For `Cc1c(C)n(Cc2ccccc2)c2ccc(-c3ccc(OCC(=O)O)cc3)cc12` [[4-(1-Benzyl-2,3-dimethyl-1H-indol-5-yl)-phenoxy]-acetic acid], the melting point was 203 to 206 °C. On human PAI-1, this compound registered an IC50 of 51.5 µM.
Regarding `Cc1c(-c2ccccc2)n(Cc2ccccc2)c2cccc(-c3ccc(OCC(=O)O)cc3)c12` [[4-(1-Benzyl-3-methyl-2-phenyl-1H-indol-4-yl)-phenoxy]-acetic acid], the melting point was 82 to 86 °C. The compound further had an IC50 on human PAI-1 of 23.1 µM.
`Cc1c(-c2ccccc2)n(Cc2ccccc2)c2ccc(-c3ccc(OCC(=O)O)cc3)cc12` [[4-(1-Benzyl-3-methyl-2-phenyl-1H-indol-5-yl)-phenoxy]-acetic acid] yielded a melting point of 173.5 to 175 °C. At human PAI-1, this compound registered an IC50 of 18.1 µM.
Take `Cc1c(-c2ccccc2)n(Cc2ccccc2)c2cc(-c3ccc(OCC(=O)O)cc3)ccc12` [[4-(1-Benzyl-3-methyl-2-phenyl-1H-indol-6-yl)-phenoxy]-acetic acid]: the melting point fell in the range of 202 to 205 °C. Moreover, the inhibition at 25 µM in data set [1] turned out to be 27%.
In turn, `CCCCCc1c(-c2ccccc2)n(Cc2ccccc2)c2ccc(-c3ccc(OCC(=O)O)cc3)cc12` [[4-(1-Benzyl-3-pentyl-2-phenyl-1H-indol-5-yl)-phenoxy]-acetic acid] displayed a melting point of 141 to 143 °C. At human PAI-1, the IC50 was found to be 15.4 µM.
For `CCCCCc1c(-c2ccccc2)n(C)c2ccc(-c3ccc(OCC(=O)O)cc3)cc12` [[4-(1-Methyl-3-pentyl-2-phenyl-1H-indol-5-yl)-phenoxy]-acetic acid], the melting point is 146 to 148 °C. Further, the inhibition at 25 µM in data set [1] is 68%.
`Cc1c(Cc2ccccc2)c2cc(-c3ccc(OCC(=O)O)cc3)ccc2n1C` [[4-(3-Benzyl-1,2-dimethyl-1H-indol-5-yl)-phenoxy]-acetic acid] registered a melting point of 204 to 207 °C. Also, the IC50 against human PAI-1 came to 38 µM.
The compound `Cn1c(-c2ccccc2)c(Cc2ccccc2)c2cc(-c3ccc(OCC(=O)O)cc3)ccc21` [[4-(3-Benzyl-1-methyl-2-phenyl-1H-indol-5-yl)-phenoxy]-acetic acid] gave a melting point of 179 to 181 °C. In addition, in data set [1], the inhibition at 25 µM was found to be 48%.
`O=C(O)COc1ccc(-c2ccc3c(c2)c2c(n3Cc3ccccc3)CCCC2)cc1` [[4-(9-Benzyl-6,7,8,9-tetrahydro-5H-carbazol-3-yl)-phenoxy]-acetic acid] had a melting point of 176 to 180 °C. On human PAI-1, this compound displayed an IC50 of 35.6 µM.
